# Results as given in ChEMBL document CHEMBL3739332, “γ- and δ-Lactams from the Leaves of Clausena lansium” (2015).
# Active and inactive are the calls of the source. No cut-off for these calls is given here.
# Tests used:
# Cortical neurone = assay: Neuroprotective activity in Sprague-Dawley rat cortical neurons assessed as inhibition of amyloid beta (25 to 35 residues)-induced neurotoxicity compound pretreated at 10 to 50 uM for 2 hrs followed by addition of 10 uM amyloid beta (25 to 35 residues) for 40 hrs by MTT assay; type: functional
# [1] = Neuroprotective activity in Sprague-Dawley rat cortical neurons assessed as inhibition of amyloid beta (25 to 35 residues)-induced neurotoxicity compound pretreated at 50 uM for 2 hrs followed by addition of 10 uM amyloid beta (25 to 35 residues) for 40 hrs by MTT assay; type: functional, Cortical neurone
Structure (SMILES),inhibition (Cortical neurone),inhibition (INH) [1] [%]
CO[C@H](c1ccccc1)[C@@H]1[C@@H](c2ccccc2)[C@H](O)C(=O)N1C,inactive,
CO[C@@H](c1ccccc1)[C@@H]1[C@@H](c2ccccc2)[C@H](O)C(=O)N1C,,22.24
CO[C@H](c1ccccc1)[C@H]1[C@H](c2ccccc2)[C@H](O)C(=O)N1C,inactive,
